From US6518265B1, “1H-imidazopyridine derivatives” (Hokuriku Seiyaku Co., Ltd., priority 1998, dated 2003)
Counter-ions that a name gives are not always drawn.

SMILES	melting point
Clc1nc2ccccc2c2c1nc(-c1ccccc1)n2CC[C@@H]1CCCN1 (as salt: fumarate) (hydrate or solvate) [Example 134]	261 to 272 °C (dec.)
CNc1nc2ccccc2c2c1nc(-c1ccccc1)n2CCC1CCN(C(=O)OC(C)(C)C)CC1 (hydrate or solvate) [Example 95]	161 to 162 °C
CC(C)(C)OC(=O)N1CCC(CCn2c(-c3ccccc3)nc3c(Cl)nc4c(c32)CCCC4)CC1 [Example 33]	215 to 218 °C (dec.)
CC(C)(C)OC(=O)N1CCC(CCn2c(-c3ccccc3)nc3c(Cl)nc4ccsc4c32)CC1 [Example 35]	199 to 200 °C

Second part, the compound after the results:

melting point	SMILES
224 to 224.5 °C	Clc1nc2ccsc2c2c1nc(-c1ccccc1)n2CCC1CCNCC1 (as salt: trifluoroacetate) (hydrate or solvate) [Example 137]
215 to 221 °C (dec.)	Clc1nc2c(c3c1nc(-c1ccccc1)n3CCC1CCNCC1)CCCC2 (as salt: trifluoroacetate) [Example 135]
225 to 232 °C (dec.)	Clc1nc2c(c3c1nc(-c1ccccc1)n3CCC1CCNCC1)CCC2 (as salt: trifluoroacetate) [Example 136]
201.5 to 202 °C	Cc1ccc(S(=O)(=O)N2CCC(CCn3cnc4c(Oc5ccccc5)nc5ccccc5c43)CC2)cc1 [Example 197]
132 to 133 °C	CCOC(=O)N1CCC(CCn2cnc3c(Oc4ccccc4)nc4ccccc4c32)CC1 [Example 198]
215 to 220 °C (dec.)	CNC(=S)N1CCC(CCn2c(-c3ccccc3)nc3c(Cl)nc4ccccc4c32)CC1 [Example 201, 4-[2-(4-Chloro-2-phenyl-1H-imidazo[4,5-c]quinolin-1-yl)ethyl]-N-methyl-1-piperidinecarbothioamide]
